Where a chain is given by its changes, count along the chain named. Like-named read-outs stand apart in the source and are kept apart here.
Columns and labels:
MGL = molecular target: T1, MGL (Rattus norvegicus, UniProt Q8R431); test: 2-AG accumulation assay in rat brain homogenate; type: biochemical; settings: rat brain homogenate, 2-AG accumulation as percent of vehicle; for 2-AG accumulation, % of vehicle control at 1 µM: compound 1 μM, read-out: Rat Brain 2AG % VehCntrl (%) @ 1 μM
T1 construct: one g rat brain was homogenized using a Polytron homogenizer; from tissue; host or cells: rat brain homogenate
T1 sequence (Q8R431 1-303): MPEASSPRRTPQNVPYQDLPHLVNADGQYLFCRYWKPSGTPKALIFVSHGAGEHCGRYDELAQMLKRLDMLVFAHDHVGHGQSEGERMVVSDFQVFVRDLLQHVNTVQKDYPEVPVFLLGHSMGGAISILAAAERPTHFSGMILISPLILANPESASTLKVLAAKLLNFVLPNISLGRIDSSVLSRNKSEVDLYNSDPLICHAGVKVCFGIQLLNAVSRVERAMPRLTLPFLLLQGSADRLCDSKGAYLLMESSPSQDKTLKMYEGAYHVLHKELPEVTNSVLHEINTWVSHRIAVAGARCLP

mutant MGL = molecular target: T2, mutant MGL (Homo sapiens, UniProt Q99685, L169S/L176S); test: MGL ThermoFluor assay - mutant; type: binding
T2 sequence (Q99685 1-303 L169S/L176S): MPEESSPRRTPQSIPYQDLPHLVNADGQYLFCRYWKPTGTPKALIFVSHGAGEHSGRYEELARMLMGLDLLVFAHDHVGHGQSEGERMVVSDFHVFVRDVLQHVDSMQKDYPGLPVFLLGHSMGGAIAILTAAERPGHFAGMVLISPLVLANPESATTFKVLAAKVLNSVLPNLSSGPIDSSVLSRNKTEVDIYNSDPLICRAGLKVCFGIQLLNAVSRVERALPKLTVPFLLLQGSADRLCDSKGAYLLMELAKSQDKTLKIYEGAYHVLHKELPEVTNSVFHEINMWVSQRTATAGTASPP

[1] = molecular target: T3, purified wild type MGL (wt-MGLL 6H-11-313) (Homo sapiens, UniProt Q99685)
T3 sequence (Q99685 1-303): T2 sequence (Q99685 1-303 L169S/L176S) with S169L, S176L

[2] = ThermoFluor, compound concentration measured by qNMR, read-out: MGL mutant ThermoFluor qKd (using qNMR conc.)
[3] = ThermoFluor concentration-response, read-out: MGL mutant ThermoFluor Kd
[4] = ThermoFluor, compound concentration measured by qNMR, read-out: MGL mutant ThermoFluor qKd (μM) (using qNMR conc.)
[5] = ThermoFluor thermal stability binding assay, read-out: MGL mutant ThermoFluor Kd
[6] = compound concentration measured by qNMR, read-out: MGL mutant ThermoFluor qKd (using qNMR conc.)

Row | 2-AG accumulation, % of vehicle control at 1 µM (MGL) | Kd (mutant MGL; [2]) | IC50 [1] | Kd (mutant MGL; [3]) | Kd (mutant MGL; [4]) | Kd (mutant MGL; [5]) | Kd (mutant MGL; [6]) | 2-AG accumulation, % of vehicle control at 10 µM (MGL; compound 10 μM, read-out: Rat Brain 2AG % VehCntrl (%) @ 10 μM) | Compound
1 | 850% | 0.008 µM | 19 nM |  |  |  |  |  | Cc1cccc(-n2ccc3cc(C(=O)N4CC(N5CCN(C(=O)c6nccs6)CC5)C4)ccc32)n1 [Cpd 1126, 1-(6-Methylpyridin-2-yl)-5-({3-[4-(1,3-thiazol-2-ylcarbonyl)piperazin-1-yl]azetidin-1-yl}carbonyl)-1H-indole]
2 | 326% |  | 140 nM | 0.04 µM |  |  |  |  | O=C(c1cscn1)N1CC(N2CCN(C(=O)c3cc4cc(C(F)(F)F)ccc4s3)CC2)C1 [Cpd 716, 1-[1-(1,3-Thiazol-4-ylcarbonyl)azetidin-3-yl]-4-{[5-(trifluoromethyl)-1-benzothiophen-2-yl]carbonyl}piperazine]
3 | 696% |  | 7 nM | 0.028 µM |  |  |  |  | O=C(c1cscn1)N1CCN(C2CN(C(=O)c3cc4ccn(-c5ccc(F)cc5)c4cc3F)C2)CC1 [Cpd 1069]
4 | 859% |  | < 5 nM |  | 0.001 µM |  |  |  | Cc1cn(-c2cccc(F)c2)c2ccc(C(=O)N3CC(N4CCN(C(=O)c5nccs5)CC4)C3)cc12 [Cpd 1368]
5 | 260% |  | 45 nM |  | 0.139 µM |  |  |  | O=C(c1cc(-c2cccc(F)c2)cs1)N1CC(N2CCN(C(=O)c3nccs3)CC2)C1 [Cpd 1160]
6 | 570% |  | 7 nM |  |  | 0.066 µM |  |  | O=C(c1ccc(OCc2cncc(Cl)c2)cc1)N1CC(N2CCN(C(=O)c3nccs3)CC2)C1 [Cpd 978]
7 | 574% |  | < 5 nM | 0.013 µM |  |  |  |  | O=C(c1ccc2c(ccn2-c2ccc(C(F)(F)F)cc2)c1)N1CC(N2CCN(C(=O)c3ccc[nH]3)CC2)C1 [Cpd 1339, 5-({3-[4-(1H-Pyrrol-2-ylcarbonyl)piperazin-1-yl]azetidin-1-yl}carbonyl)-1-[4-(trifluoromethyl)phenyl]-1H-indole]
8 | 270% |  | < 5 nM | 0.009 µM |  |  |  |  | CCC(C)(C)c1ccc(C(=O)N2CC(N3CCN(C(=O)c4nccs4)CC3)C2)cc1 [Cpd 887]
9 | 652% |  | < 5 nM | 0.072 µM |  |  |  |  | O=C(c1ccccc1)N1CCN(C2CN(C(=O)c3ccc(Cc4cccc(C(F)(F)F)c4)cc3)C2)CC1 [Cpd 547]
10 | 199% |  | 28.5 nM |  |  | 0.005 µM |  |  | COc1cc(C(=O)N2CC(N3CCN(C(=O)c4ccccc4)CC3)C2)ccc1-c1ccc(F)c(Cl)c1 [Cpd 263, 1-{1-[(3′-Chloro-4′-fluoro-2-methoxybiphenyl-4-yl)carbonyl]azetidin-3-yl}-4-(phenylcarbonyl)piperazine]
11 | 622% |  | 9 nM |  |  |  | 0.019 µM |  | O=C(c1ccc2c(c1)CCN2c1ccc(F)cc1)N1CC(N2CCN(C(=O)c3cscn3)CC2)C1 [Cpd 1081]
12 | 475% |  | 77 nM | 0.008 µM |  |  |  |  | Cn1cc(I)c2ccc(C(=O)N3CC(N4CCN(C(=O)c5nccs5)CC4)C3)cc21 [Cpd 701]
13 | 192% |  | 1050 nM | 0.66 µM |  |  |  |  | COc1ccc(C(=O)N2CC(N3CCN(C(=O)c4cscn4)CC3)C2)cc1-c1ccccc1 [Cpd 1265]
14 |  |  | 11.7 nM | 0.037 µM |  |  |  | 579% | CC1CN(C2CN(C(=O)c3ccc(Cc4ccccc4)cc3)C2)CCN1C(=O)c1nccs1 (stereo not shown) [Cpd 115]
15 | 179% |  | 69 nM |  | 0.118 µM |  |  |  | O=C(c1ccccc1)N1CCN(C2CN(C(=O)c3ccc4c(ccn4-c4cc(F)cc(F)c4)c3)C2)CC1 [Cpd 580]
16 | 948% |  | < 5 nM | 0.007 µM |  |  |  |  | CCCCCCCc1ccc(C(=O)N2CC(N3CCN(C(=O)c4nccs4)CC3)C2)cc1 [Cpd 892]

Row | 2-AG accumulation, % of vehicle control at 1 µM (MGL) | Kd (mutant MGL; [2]) | IC50 [1] | Kd (mutant MGL; [3]) | Kd (mutant MGL; [4]) | Kd (mutant MGL; [5]) | Kd (mutant MGL; [6]) | 2-AG accumulation, % of vehicle control at 10 µM (MGL; compound 10 μM, read-out: Rat Brain 2AG % VehCntrl (%) @ 10 μM) | Compound
17 | 602% |  | < 5 nM | 0.002 µM |  |  |  |  | O=C(c1ccc2c(-c3ccccc3)c[nH]c2c1)N1CC(N2CCN(C(=O)c3nccs3)CC2)C1 [Cpd 1316]
18 | 734% | 0.023 µM | 13 nM |  |  |  |  |  | Cc1ccc(-n2ccc3cc(C(=O)N4CC(N5CCN(C(=O)c6nccs6)CC5)C4)ccc32)cn1 [Cpd 1105, 1-(6-Methylpyridin-3-yl)-5-({3-[4-(1,3-thiazol-2-ylcarbonyl)piperazin-1-yl]azetidin-1-yl}carbonyl)-1H-indole]
19 | 128% |  | 2070 nM |  |  | 0.2 µM |  |  | O=C(c1cscn1)N1CCN(C2CN(C(=O)c3cccc4nc(-c5ccc(F)cc5)oc34)C2)CC1 [Cpd 1282]
20 | 475% |  | 151 nM | 0.179 µM |  |  |  |  | O=C(c1ccc2c(ccn2-c2ncccn2)c1)N1CC(N2CCN(C(=O)c3cscn3)CC2)C1 [Cpd 1201, 1-Pyrimidin-2-yl-5-({3-[4-(1,3-thiazol-4-ylcarbonyl)piperazin-1-yl]azetidin-1-yl}carbonyl)-1H-indole]
21 | 838% |  | 11 nM | 0.005 µM |  |  |  |  | O=C(c1nccs1)N1CCN(C2CN(C(=O)c3sc4ccc(-c5ccc(C(F)(F)F)cc5)cc4c3F)C2)CC1 [Cpd 1092]
22 | 287% |  | 6 nM | 0.166 µM |  |  | 0.132 µM |  | O=C(c1ccc[nH]1)N1CCN(C2CN(C(=O)c3nn(-c4ccc(Cl)cc4Cl)c4c3CCC/C4=C\c3ccc(Cl)cc3)C2)CC1 [Cpd 1019]
23 | 157% |  | 13.4 nM |  |  | 0.0333 µM |  |  | Cc1cc(-c2ccc(Cl)c(C(F)(F)F)c2)ccc1C(=O)N1CC(N2CCN(C(=O)c3ccccc3)CC2)C1 [Cpd 256, 1-(1-{[4′-Chloro-3-methyl-3′-(trifluoromethyl)biphenyl-4-yl]carbonyl}azetidin-3-yl)-4-(phenylcarbonyl)piperazine]
24 | 280% |  | 17 nM | 0.05 µM |  |  |  |  | O=C(c1cscn1)N1CCN(C2CN(C(=O)c3sc4ccc(Cl)cc4c3C(F)(F)F)C2)CC1 [Cpd 673]
25 | 798% |  | < 5 nM |  |  | 0.002 µM |  |  | O=C(c1ccc2c(ccn2-c2cc(F)c(F)c(F)c2)c1)N1CC(N2CCN(C(=O)c3nccs3)CC2)C1 [Cpd 1367]
26 | 472% |  | 11 nM | 0.24 µM |  |  |  |  | O=C(c1cccc(-c2cccc(C(F)(F)F)c2)c1)N1CC(N2CCN(C(=O)c3nccs3)CC2)C1 [Cpd 1093]
27 | 258% |  | 59 nM | 0.014 µM |  |  |  |  | Cn1nc(-c2cccc(F)c2)c2cc(C(=O)N3CC(N4CCN(C(=O)c5nccs5)CC4)C3)ccc21 [Cpd 1170]
28 | 190% |  | 52 nM | 0.317 µM |  |  |  |  | O=C(c1ccccc1)N1CCN(C2CN(C(=O)c3ccc(Oc4ncc(C(F)(F)F)cc4Cl)cc3)C2)CC1 [Cpd 507]
29 | 742% |  | 9 nM | 0.003 µM |  |  |  |  | O=C(c1ccc(-c2nc(-c3ccc(F)cc3)cs2)cc1)N1CC(N2CCN(C(=O)c3nccs3)CC2)C1 [Cpd 1082]
30 | 293% |  | 16 nM | 0.049 µM |  |  |  |  | Cc1cc(C(=O)N2CC(N3CCN(C(=O)c4ccns4)CC3)C2)ccc1-c1cccc(C(F)(F)F)c1 [Cpd 1114, 1-(Isothiazol-5-ylcarbonyl)-4-(1-{[2-methyl-3′-(trifluoromethyl)biphenyl-4-yl]carbonyl}azetidin-3-yl)piperazine]
31 | 507% |  | 13 nM |  |  | 0.058 µM |  |  | O=C(c1ccc2c(c1)CCN(C(=O)c1cccs1)C2)N1CC(N2CCN(C(=O)c3nccs3)CC2)C1 [Cpd 665]
32 | 508% |  | 12 nM |  |  |  | 0.02 µM |  | O=C(c1ccc2c(c1)CCN2c1ccc(F)cc1)N1CC(N2CCN(C(=O)c3ccc[nH]3)CC2)C1 [Cpd 1099]

Source: patent US8362000B2, “Azetidinyl diamides as monoacylglycerol lipase inhibitors” (Janssen Pharmaceutica NV, priority 2009, dated 2013)
